Results published in the NIST ThermoML archive (doi:10.1016/j.jct.2016.12.019).
Numbers after ± are expanded uncertainties.

Test: xn = mol fraction of the nth substance listed
Conditions: 100 kPa, Liquid; for viscosity: Capillary tube (Ostwald / Ubbelohde) method; for speed of sound: Frequency=2 MHz, Linear variable-path acoustic interferometer; for mass density: Vibrating tube method

CCN(CC)c1ccccc1 [N,N-diethylaniline] + CCCCCCCCCO
Conditions | mass density [kg/m3] | speed of sound [m/s] | viscosity [mPa·s]
303.15 K, x1 = 0.1136 | 829.82 ± 1.1 | 1359 ± 8.3 | 6.563 ± 0.18
303.15 K, x1 = 0.2326 | 840.12 ± 1.1 | 1362.8 ± 8.3 | 5.409 ± 0.15
303.15 K, x1 = 0.3469 | 850.43 ± 1.1 | 1367.6 ± 8.4 | 4.509 ± 0.12
303.15 K, x1 = 0.4541 | 860.76 ± 1.1 | 1373.5 ± 8.4 | 3.804 ± 0.1
303.15 K, x1 = 0.5549 | 871.13 ± 1.1 | 1380.2 ± 8.4 | 3.248 ± 0.088
303.15 K, x1 = 0.6498 | 881.45 ± 1.1 | 1387.8 ± 8.5 | 2.805 ± 0.076
303.15 K, x1 = 0.7293 | 890.62 ± 1.1 | 1395.3 ± 8.5 | 2.488 ± 0.068
303.15 K, x1 = 0.8244 | 902.24 ± 1.1 | 1405.9 ± 8.6 | 2.166 ± 0.059
303.15 K, x1 = 0.9041 | 912.58 ± 1.1 | 1416.7 ± 8.7 | 1.938 ± 0.053
303.15 K, x1 = 1 | 925.8 ± 1.1 | 1432 ± 8.7 | 1.711 ± 0.046
308.15 K, x1 = 0.1136 | 826.24 ± 1.1 | 1336.3 ± 8.2 | 5.491 ± 0.15
308.15 K, x1 = 0.2326 | 836.48 ± 1.1 | 1340.6 ± 8.2 | 4.557 ± 0.12
308.15 K, x1 = 0.3469 | 846.76 ± 1.1 | 1346.2 ± 8.2 | 3.828 ± 0.1
308.15 K, x1 = 0.4541 | 857.04 ± 1.1 | 1352.7 ± 8.3 | 3.252 ± 0.088
308.15 K, x1 = 0.5549 | 867.33 ± 1.1 | 1360.1 ± 8.3 | 2.794 ± 0.076
308.15 K, x1 = 0.6498 | 877.63 ± 1.1 | 1368.3 ± 8.4 | 2.427 ± 0.066
308.15 K, x1 = 0.7293 | 886.75 ± 1.1 | 1376.3 ± 8.4 | 2.164 ± 0.059
308.15 K, x1 = 0.8244 | 898.32 ± 1.1 | 1387.7 ± 8.5 | 1.898 ± 0.051
308.15 K, x1 = 0.9041 | 908.61 ± 1.1 | 1399.2 ± 8.5 | 1.714 ± 0.046
308.15 K, x1 = 1 | 921.8 ± 1.1 | 1416 ± 8.6 | 1.537 ± 0.041
313.15 K, x1 = 0.1136 | 822.7 ± 1.1 | 1315.3 ± 8 | 4.791 ± 0.13
313.15 K, x1 = 0.2326 | 832.9 ± 1.1 | 1320 ± 8.1 | 3.988 ± 0.11
313.15 K, x1 = 0.3469 | 843.13 ± 1.1 | 1325.9 ± 8.1 | 3.362 ± 0.092
313.15 K, x1 = 0.4541 | 853.37 ± 1.1 | 1332.7 ± 8.2 | 2.867 ± 0.078
313.15 K, x1 = 0.5549 | 863.63 ± 1.1 | 1340.4 ± 8.2 | 2.471 ± 0.067
313.15 K, x1 = 0.6498 | 873.88 ± 1.1 | 1348.9 ± 8.2 | 2.154 ± 0.058
313.15 K, x1 = 0.7293 | 882.96 ± 1.1 | 1357.1 ± 8.3 | 1.926 ± 0.052
313.15 K, x1 = 0.8244 | 894.48 ± 1.1 | 1368.8 ± 8.4 | 1.697 ± 0.046
313.15 K, x1 = 0.9041 | 904.74 ± 1.1 | 1380.6 ± 8.4 | 1.541 ± 0.042
313.15 K, x1 = 1 | 917.9 ± 1.1 | 1398 ± 8.5 | 1.4 ± 0.038
318.15 K, x1 = 0.1136 | 817.68 ± 1.1 | 1295.7 ± 7.9 | 3.979 ± 0.11
318.15 K, x1 = 0.2326 | 827.96 ± 1.1 | 1300.3 ± 8 | 3.341 ± 0.092
318.15 K, x1 = 0.3469 | 838.28 ± 1.1 | 1306.2 ± 8 | 2.843 ± 0.078
318.15 K, x1 = 0.4541 | 848.61 ± 1.1 | 1312.9 ± 8 | 2.447 ± 0.067
318.15 K, x1 = 0.5549 | 858.95 ± 1.1 | 1320.6 ± 8.1 | 2.128 ± 0.058
318.15 K, x1 = 0.6498 | 869.3 ± 1.1 | 1328.9 ± 8.1 | 1.869 ± 0.051
318.15 K, x1 = 0.7293 | 878.48 ± 1.1 | 1337.1 ± 8.2 | 1.683 ± 0.046
318.15 K, x1 = 0.8244 | 890.11 ± 1.1 | 1348.6 ± 8.2 | 1.498 ± 0.041
318.15 K, x1 = 0.9041 | 900.48 ± 1.1 | 1360.3 ± 8.3 | 1.377 ± 0.037
318.15 K, x1 = 1 | 913.8 ± 1.1 | 1378 ± 8.4 | 1.276 ± 0.034

CCN(CC)c1ccccc1 [N,N-diethylaniline] + CCCCCCCCO
Conditions | mass density [kg/m3] | speed of sound [m/s] | viscosity [mPa·s]
303.15 K, x1 = 0.1157 | 828.58 ± 1.1 | 1338.2 ± 8.2 | 5.469 ± 0.15
303.15 K, x1 = 0.2012 | 836.5 ± 1.1 | 1342.6 ± 8.2 | 4.863 ± 0.13
303.15 K, x1 = 0.3115 | 847.11 ± 1.1 | 1349.2 ± 8.3 | 4.178 ± 0.11
303.15 K, x1 = 0.4221 | 858.24 ± 1.1 | 1357.3 ± 8.3 | 3.59 ± 0.097
303.15 K, x1 = 0.5111 | 867.57 ± 1.1 | 1364.9 ± 8.3 | 3.18 ± 0.086
303.15 K, x1 = 0.6217 | 879.68 ± 1.1 | 1375.9 ± 8.4 | 2.743 ± 0.074
303.15 K, x1 = 0.7135 | 890.17 ± 1.1 | 1386.8 ± 8.5 | 2.433 ± 0.066
303.15 K, x1 = 0.8063 | 901.22 ± 1.1 | 1399.4 ± 8.6 | 2.162 ± 0.059
303.15 K, x1 = 0.9045 | 913.42 ± 1.1 | 1414.7 ± 8.6 | 1.915 ± 0.052
303.15 K, x1 = 1 | 925.8 ± 1.1 | 1432 ± 8.7 | 1.711 ± 0.046
308.15 K, x1 = 0.1157 | 824.98 ± 1.1 | 1317.3 ± 8.1 | 4.653 ± 0.13
308.15 K, x1 = 0.2012 | 832.86 ± 1.1 | 1321.9 ± 8.1 | 4.155 ± 0.11
308.15 K, x1 = 0.3115 | 843.43 ± 1.1 | 1329.1 ± 8.1 | 3.59 ± 0.098
308.15 K, x1 = 0.4221 | 854.51 ± 1.1 | 1337.7 ± 8.2 | 3.132 ± 0.085
308.15 K, x1 = 0.5111 | 863.81 ± 1.1 | 1345.7 ± 8.2 | 2.762 ± 0.075
308.15 K, x1 = 0.6217 | 875.86 ± 1.1 | 1357.3 ± 8.3 | 2.397 ± 0.065
308.15 K, x1 = 0.7135 | 886.3 ± 1.1 | 1368.4 ± 8.4 | 2.137 ± 0.058
308.15 K, x1 = 0.8063 | 897.3 ± 1.1 | 1381.4 ± 8.4 | 1.913 ± 0.052
308.15 K, x1 = 0.9045 | 909.45 ± 1.1 | 1397.3 ± 8.5 | 1.704 ± 0.046
308.15 K, x1 = 1 | 921.8 ± 1.1 | 1416 ± 8.6 | 1.537 ± 0.041
313.15 K, x1 = 0.1157 | 820.38 ± 1.1 | 1300 ± 7.9 | 3.991 ± 0.11
313.15 K, x1 = 0.2012 | 828.3 ± 1.1 | 1304.5 ± 8 | 3.58 ± 0.097
313.15 K, x1 = 0.3115 | 838.94 ± 1.1 | 1311.6 ± 8 | 3.112 ± 0.085
313.15 K, x1 = 0.4221 | 850.09 ± 1.1 | 1320.2 ± 8.1 | 2.707 ± 0.074
313.15 K, x1 = 0.5111 | 859.45 ± 1.1 | 1328.2 ± 8.1 | 2.422 ± 0.066
313.15 K, x1 = 0.6217 | 871.58 ± 1.1 | 1339.5 ± 8.2 | 2.118 ± 0.057
313.15 K, x1 = 0.7135 | 882.1 ± 1.1 | 1350.5 ± 8.3 | 1.899 ± 0.051
313.15 K, x1 = 0.8063 | 893.18 ± 1.1 | 1363.3 ± 8.3 | 1.708 ± 0.046
313.15 K, x1 = 0.9045 | 905.42 ± 1.1 | 1379.3 ± 8.4 | 1.536 ± 0.041
313.15 K, x1 = 1 | 917.9 ± 1.1 | 1398 ± 8.5 | 1.4 ± 0.038
318.15 K, x1 = 0.1157 | 815.85 ± 1.1 | 1286.3 ± 7.9 | 3.504 ± 0.095
318.15 K, x1 = 0.2012 | 823.79 ± 1.1 | 1290.4 ± 7.9 | 3.151 ± 0.085
318.15 K, x1 = 0.3115 | 834.47 ± 1.1 | 1297 ± 7.9 | 2.748 ± 0.074
318.15 K, x1 = 0.4221 | 845.67 ± 1.1 | 1304.9 ± 8 | 2.398 ± 0.065
318.15 K, x1 = 0.5111 | 855.06 ± 1.1 | 1312.4 ± 8 | 2.154 ± 0.058
318.15 K, x1 = 0.6217 | 867.24 ± 1.1 | 1323 ± 8.1 | 1.889 ± 0.051
318.15 K, x1 = 0.7135 | 877.8 ± 1.1 | 1333.2 ± 8.1 | 1.701 ± 0.046
318.15 K, x1 = 0.8063 | 888.93 ± 1.1 | 1345.1 ± 8.2 | 1.535 ± 0.041
318.15 K, x1 = 0.9045 | 901.24 ± 1.1 | 1360.1 ± 8.3 | 1.388 ± 0.037
318.15 K, x1 = 1 | 913.8 ± 1.1 | 1378 ± 8.4 | 1.276 ± 0.034
